Values quoted from earlier work, collected in publication PMC5992566 (Nanomedicine, 2018).

Details: after a single parenteral dose

Half-life: 21 to 50 days
SMILES: C[C@H]1CO[C@@H]2Cn3cc(C(=O)NCc4ccc(F)cc4F)c(=O)c(O)c3C(=O)N12 [Cabotegravir, cabotegravir]
